The results in this text go back to US20100247593A1, “NOVEL COMPOUNDS AND PHARMACEUTICAL PREPARATIONS” (priority 2007, published 2010).

Data set [1] relates to male mice. As to the kind of experiment: Mice sexual behaviour test (number of mounts). In kind it is in vivo.
The nature of data set [2]: Stability in CDCl3 solution according to NMR spectra. In kind it is physicochemical. The following applies: CDCl3, 25° C. As for the experimental part: NMR spectra were recorded with a Varian UNITY INOVA 600 MHz spectrometer equipped with a cryoprobe in CDCl3 solution at 25° C. Chemical shifts are reported in ppm relative to residual solvent signal (δ(^1H) 7.25 ppm, δ(^13C) […]). Two-dimensional spectra recorded included DQF-COSY, NOESY, TOCSY, sensitivity-enhanced ^13C-HSQC and ^13C-^1H HMBC. Pulsed-field gradients were used for all ^13C correlation spectra. The NOESY mixing time was 800 ms, the TOCSY one 70 ms. ^13C-HMBC spectra were recorded with coupling evolution delay for the generation of multiple-bond correlations set to 62.5 ms. All 2D spectra were run with 4096*1024 points data matrix, giving τ2max=250 ms for ^1H nucleus in acquisition dimension and τ1max=100 ms for ^1H or τ1max=50 ms for ^13C for indirect dimension. Prior to Fourier transform the data matrix was zero-filled twice and multiplication by shifted sine-bell window function applied. For ^1H-^13C HMBC the magnitude spectra were calculated. Graphs from the spectra recorded are shown in drawing section FIGS. 15-27.

Turning to `COC(=O)CC1C2(C)CC34OC5(C)OC67C(CC(=O)OC6C3(OC(=O)C(C)C)C2OC(=O)C(C)C)C(C)(C(=O)c2ccoc2)CCC7(O5)C14C` (stereo not drawn) [R306], the “increase of number of mounts counted during the 3 hour period” value in data set [1] (subcutaneous 0.4 mg/kg x3 days, D4) is listed as “about 3.5 fold”. For the same compound, the “sexual activity (number of mounts over a 3 hour period)” value in data set [1] (subcutaneous in sun-flower oil x3 days, lowest dose (0.004 mg/kg)) is “tendency of increase”; in data set [1] (subcutaneous in sun-flower oil x3 days, two highest doses (0.4 and 0.04 mg/kg), D-4, D-7, D-14), “significant increases”. Besides, the “activity (Umnt) = 1/EC50” value in data set [1] (subcutaneous x3 days, 7th day as basis) is reported as “about 15 U/mg”. The “time course of the effect on number of mounts” value in data set [1] (subcutaneous x3 days, tested D-4, D-7, D-14) was “peaked at D7, while clear effects were seen also at D14”. For the same compound, the “stability in CDCl3 solution according to the NMR spectra” value in data set [2] is listed as “stable during several weeks”.

For the compound `COC(=O)CC1C2(C)CC34OC5(C)OC67C(C(C(=O)C(C)C)C(=O)OC6C3(O)C2OC(C)=O)C(C)(C(OC(C)=O)c2ccoc2)CCC7(O5)C14C` (stereo not drawn) [R310], the “sexual activity (number of mounts over a 3 hour period)” value in data set [1] (subcutaneous in sun flower-oil x3 days, highest dose (4 mg/kg), all days tested (D-4, D-7, D-14)) is recorded as “Significant increases”; in data set [1] (subcutaneous x3 days, two lower doses (0.4 and 0.04 mg/kg)), “significantly increased only on D-4”. In addition, the “stability in CDCl3 solution according to the NMR spectra” value in data set [2] is on record as “consisted of two isomers which slowly interchanged”.
